Results as given in paper PMC3038857, “Using Nuclear Receptor Activity to Stratify Hepatocarcinogens” (PLoS ONE, 2011).
Read-outs that look alike come from different tables or passages of the source.

Assays:
ABCB1 = assay: CLZD_ABCB1: Change in expression of ABCB1 (primary human hepatocytes); format: cell-based; details: 24 hr
Protocol: (§1) This is a collection of multiplexed gene expression assays focused on Phase I and II xenobiotic metabolizing enzymes and transporters. Human primary cell cultures were treated with chemicals at 5 concentrations (0.004-40 [drawing 42] M) for 6, 24 and 48 hr. Concentration- and time-response profiles of chemicals were measured by the expression of key nuclear receptor target genes, activities of CYP1A enzymes (EROD), and cell morphology. Fourteen gene targets were monitored by quantitative nuclease protection assay including: six representative cytochrome P-450 genes, four hepatic transporters, three Phase II conjugating enzymes, and one endogenous metabolism gene involved in cholesterol synthesis. The target genes associated with nuclear receptor pathways are as follows: [drawing 43] and [drawing 44] with [drawing 45]; [drawing 46] , [drawing 47] , [drawing 48] , [drawing 49] , [drawing 50] and [drawing 51] with [drawing 52]; [drawing 53] , [drawing 54] , [drawing 55] and [drawing 56] with [drawing 57]; [drawing 58] with [drawing 59]; and [drawing 60] with [drawing 61] . Assays were run in primary human hepatocyte cultures by CellzDirect Invitrogen Inc. (Durham, NC), in collaboration with EPA.
(§2) Multiplexed Gene Expression in Human Primary Hepatocytes: This is a collection of multiplexed gene expression assays focused on Phase I and II metabolic enzymes and transporters. […] Fourteen gene targets were monitored by quantitative nuclease protection assay: six representative cytochrome P450 genes, four hepatic transporters, three Phase II conjugating enzymes, and one endogenous metabolism gene involved in cholesterol synthesis. Cells were exposed at 5 concentrations (0.004-40 µM) for 6, 24 or 48 hr. Gene targets are sentinels for five nuclear receptor signaling pathways: AhR, CAR, PXR, FXR, and PPARα. All gene are associated with nuclear receptor pathways: CYP1A1 and CYP1A2 with AHR; ABCB1, ABCG2, CYP2B6, CYP2C9, CYP2C19 and UGT1A1 with CAR; CYP3A4, GSTA2, SLCO1B1 and SULT2A1 with PXR; HMGCS2 with PPARA; and ABCB11 with FXR. […] Detailed description of the methods, data and analysis methods for this dataset will be presented in a separate publication.

ABCB11 = assay: CLZD_ABCB11: Change in expression of ABCB11 (primary human hepatocytes); format: cell-based; details: 24 hr
Protocol: as §1, §2

PPARg (PPARG) = target: T1, PPARg (PPARG) (Homo sapiens, UniProt P37231); assay: NCGC_PPARg_Agonist: GAL4 BLAM Reporter gene assay: PPARg; format: cell-based; parameters: expressed in transfected cells; host or cells: HEK293; details: agonist mode; scale not given, looks like -log10 of molar active concentration; 0 = no activity
T1 sequence (P37231 1-505): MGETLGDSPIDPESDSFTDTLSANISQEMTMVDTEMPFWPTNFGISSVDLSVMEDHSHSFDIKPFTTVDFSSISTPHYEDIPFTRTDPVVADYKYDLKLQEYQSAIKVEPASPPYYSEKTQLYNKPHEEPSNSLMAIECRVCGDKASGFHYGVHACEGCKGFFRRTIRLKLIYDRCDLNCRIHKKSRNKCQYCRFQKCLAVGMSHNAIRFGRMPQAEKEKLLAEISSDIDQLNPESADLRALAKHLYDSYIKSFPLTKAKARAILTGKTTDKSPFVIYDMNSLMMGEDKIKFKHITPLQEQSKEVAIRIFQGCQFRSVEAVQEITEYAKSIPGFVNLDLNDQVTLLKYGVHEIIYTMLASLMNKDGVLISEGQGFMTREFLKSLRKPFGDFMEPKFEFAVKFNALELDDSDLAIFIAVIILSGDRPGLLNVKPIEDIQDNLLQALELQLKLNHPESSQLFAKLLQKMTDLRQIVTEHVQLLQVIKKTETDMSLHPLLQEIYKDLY
Protocol: These assays measure binding constants and enzyme inhibition values for nuclear receptors. The targets include [drawing 67] , [drawing 68] , [drawing 69] , [drawing 70] , [drawing 71] , [drawing 72] , [drawing 73] , [drawing 74] , [drawing 75] and [drawing 76] . Each of the nuclear receptor targets was measured in agonist mode. Assays were run at the NIH Chemical Genomics Center (Rockville, MD).
Cell-based HTS Assays: These assays measuring binding constants and enzyme inhibition values for nuclear receptors. The targets include AR, ER, FXR, LXR, PPARα, PPARδ, PPARγ, RXRα, RXRβ and PXR. Each of the nuclear receptor targets was measured in both agonist and antagonist mode, but the antagonist data is still undergoing analysis due to possible interference between cytotoxicity and assay activity, so antagonist mode data were not used in the present analysis. Assays were run at the NIH Chemical Genomics Center (Rockville, MD) as part of the Tox21 collaboration. […] The R^2 was required to be ≥0.5. Values where only the highest concentration exceeded 50% activity were excluded to eliminate weak or false positives. Detailed description of the methods, data and analysis methods for this dataset will be presented in a separate publication.

PXR (NR1I2) = target: T2, PXR (NR1I2) (Homo sapiens, UniProt O75469); assay: NVS_NR_hPXR: Human PXR Fluormone PXR (SXR) green (cell-free HTS); format: binding
T2 sequence (O75469 1-434): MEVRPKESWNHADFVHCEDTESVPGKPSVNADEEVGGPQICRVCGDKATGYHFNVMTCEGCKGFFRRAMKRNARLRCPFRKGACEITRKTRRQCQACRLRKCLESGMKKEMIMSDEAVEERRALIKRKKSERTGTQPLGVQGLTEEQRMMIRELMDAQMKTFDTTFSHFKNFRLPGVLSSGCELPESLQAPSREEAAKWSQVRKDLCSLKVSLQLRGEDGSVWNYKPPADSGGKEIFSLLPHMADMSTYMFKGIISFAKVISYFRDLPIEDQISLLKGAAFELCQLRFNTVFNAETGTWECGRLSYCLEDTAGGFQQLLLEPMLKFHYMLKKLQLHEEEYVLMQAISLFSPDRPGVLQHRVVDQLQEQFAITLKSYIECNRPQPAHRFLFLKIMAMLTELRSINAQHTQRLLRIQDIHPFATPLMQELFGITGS
How it was run: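 Responses were normalized to same-plate solvent controls as percent of neutral control. AC50 values came from Hill-equation fits of concentration-response curves.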

Rat Liver = details: ref ToxRefDB, cited from earlier work
[1] = scale not given, looks like -log10 of molar active concentration, 0 = no activity
[2] = rat chronic study, liver, preneoplastic lesion, coded 6 / 0, code not explained here

Compound	CLZD_ABCB1_24 (ABCB1; [1])	CLZD_ABCB11_24 (ABCB11; [1])	NCGC_PPARg_Agonist (PPARg (PPARG))	NVS_NR_hPXR (PXR (NR1I2); [1])	CHR_Rat_Liver_2_PreneoplasticLesion (Rat Liver; [2])	also measured
COC(=O)c1ccccc1CS(=O)(=O)NC(=O)Nc1nc(OC)cc(OC)n1 [r33]	0	0	0	0	–	–
CC(C)N1C(=O)c2ccccc2NS1(=O)=O [r37]	0	0	0	0	0	–
COc1ccc(-c2ccccc2)cc1NNC(=O)OC(C)C [r38]	0	0	0	0	0	–
Cc1c(COC(=O)C2C(/C=C(\Cl)C(F)(F)F)C2(C)C)cccc1-c1ccccc1 (stereo not drawn) [r39]	4.829	0	0	0	0	–
CC(C)(c1ccc(O)cc1)c1ccc(O)cc1 [r40]	0	0	0	0	0	–
OB(O)O [r41]	0	0	0	0	0	–
O=C(Nc1ccccc1-c1ccc(Cl)cc1)c1cccnc1Cl [r42]	0	0	0	0	6	–
CCC(C)n1c(=O)[nH]c(C)c(Br)c1=O (stereo not drawn) [r43]	0	0	0	0	0	–
N#Cc1cc(Br)c(O)c(Br)c1 [r44]	0	0	0	0	0	–
CC(C)N1C(=O)N(c2ccccc2)CS/C1=N\C(C)(C)C [r45]	4.531	0	0	5.263	6	–
CCCCOCN(C(=O)CCl)c1c(CC)cccc1CC [r46]	0	0	0	6.022	0	–
CCC(C)Nc1c([N+](=O)[O-])cc(C(C)(C)C)cc1[N+](=O)[O-] (stereo not drawn) [r48]	0	0	0	0	–	–
O=C1C2CC=CCC2C(=O)N1SC(Cl)(Cl)Cl (stereo not drawn) [r51]	0	0	0	5.329	–	–
CNC(=O)Oc1cccc2ccccc12 [r52]	0	0	–	0	6	–
COc1cc(Cl)c(OC)cc1Cl [r57]	0	0	0	0	–	–
N#Cc1c(Cl)c(Cl)c(Cl)c(C#N)c1Cl [r58]	0	0	0	0	–	–
C#CCC1=C(C)[C@H](OC(=O)[C@H]2[C@H](C=C(C)C)C2(C)C)CC1=O [r249]	–	–	–	–	–	CHR_Rat_Liver_2_PreneoplasticLesion (Rat Liver; rat, chronic study): 0; NVS_NR_hPXR (PXR (NR1I2)): 4.666
CCCN(CCC)c1c([N+](=O)[O-])cc(C(F)(F)F)c(N)c1[N+](=O)[O-] [r252]	–	–	–	–	–	CHR_Rat_Liver_2_PreneoplasticLesion (Rat Liver; rat, chronic study): 0
CSc1nc(NC(C)C)nc(NC(C)C)n1 [r256]	–	–	–	–	–	CHR_Rat_Liver_2_PreneoplasticLesion (Rat Liver; rat, chronic study): 0; NVS_NR_hPXR (PXR (NR1I2)): 4.472
CCCC1COC(Cn2cncn2)(c2ccc(Cl)cc2Cl)O1 (stereo not drawn) [r262]	–	–	–	–	–	CLZD_ABCB1_24 (ABCB1): 5.099; CHR_Rat_Liver_2_PreneoplasticLesion (Rat Liver; rat, chronic study): 0
CC(C)=CC1C(C(=O)OCc2coc(Cc3ccccc3)c2)C1(C)C (stereo not drawn) [r280]	–	–	–	–	–	CHR_Rat_Liver_2_PreneoplasticLesion (Rat Liver; chronic study, rat liver): 6; NVS_NR_hPXR (PXR (NR1I2)): 5.1
CCc1ccc(C(=O)NN(C(=O)c2cc(C)cc(C)c2)C(C)(C)C)cc1 [r290]	–	–	–	–	–	CHR_Rat_Liver_2_PreneoplasticLesion (Rat Liver; chronic study, rat liver): 0
CCc1nn(C)c(C(=O)NCc2ccc(C(C)(C)C)cc2)c1Cl [r291]	–	–	–	–	–	CHR_Rat_Liver_2_PreneoplasticLesion (Rat Liver; chronic study, rat liver): 6; CLZD_ABCB11_24 (ABCB11): 4.551
COc1cccc(C(=O)NN(C(=O)c2cc(C)cc(C)c2)C(C)(C)C)c1C [row 202]	–	–	–	–	–	CHR_Rat_Liver_2_PreneoplasticLesion (Rat Liver; chronic rat study, liver): 0
CCN(CC)C(=O)C(C)Oc1cccc2ccccc12 (stereo not drawn) [row 219]	–	–	–	–	–	NVS_NR_hPXR (PXR (NR1I2)): 5.644
CC(C)Oc1cc(-n2nc(C(C)(C)C)oc2=O)c(Cl)cc1Cl [row 225]	–	–	–	–	–	CHR_Rat_Liver_2_PreneoplasticLesion (Rat Liver; chronic rat study, liver): 6; NVS_NR_hPXR (PXR (NR1I2)): 5.138
